Reference: ChEMBL document CHEMBL1201862, “PubChem BioAssay data set” (2004)
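Five concentrations, 48 hours, 96-well plates. GI50 is the concentration that inhibits growth by half.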 Active and inactive are the calls of the source. Rule as the data show it: active = GI50 up to about 1.1 µM and inactive = higher.

How the values were obtained:
Assay in all cases: NCI tumour cell line growth inhibition, 48 h
SF-539 = system: SF-539
UO-31 = system: UO-31
NCI-H522 = system: NCI-H522
SW-620 = system: SW-620
NCI/ADR-RES = system: NCI/ADR-RES
EKVX = system: EKVX
SK-MEL-5 = system: SK-MEL-5
IGROV-1 = system: IGROV-1
SK-MEL-2 = system: SK-MEL-2
RXF 393 = system: RXF 393
DU-145 = system: DU-145
SNB-19 = system: SNB-19
CAKI-1 = system: CAKI-1
HCT-116 = system: HCT-116
MDA-MB-231 = system: MDA-MB-231
M14 = system: M14
OVCAR-3 = system: OVCAR-3
LOX IMVI = system: LOX IMVI
K562 = system: K562
SN12C = system: SN12C

SMILES	GI50 (SF-539)	GI50 (UO-31)	GI50 (NCI-H522)	GI50 (SW-620)	GI50 (NCI/ADR-RES)	GI50 (EKVX)	GI50 (SK-MEL-5)	GI50 (IGROV-1)	GI50 (SK-MEL-2)	GI50 (RXF 393)	GI50 (DU-145)	GI50 (SNB-19)	GI50 (CAKI-1)	GI50 (HCT-116)	GI50 (MDA-MB-231)	GI50 (M14)	GI50 (OVCAR-3)	GI50 (LOX IMVI)	GI50 (K562)	GI50 (SN12C)
N=c1c2sc3nc4ccccc4n3c2ncn1Cc1ccccc1	> 100 µM (inactive)	> 100 µM (inactive)	> 100 µM (inactive)	> 100 µM (inactive)	> 100 µM (inactive)	> 100 µM (inactive)	> 100 µM (inactive)	> 100 µM (inactive)	> 100 µM (inactive)	63.5 µM (inactive)	> 100 µM (inactive)	> 100 µM (inactive)	> 100 µM (inactive)	> 100 µM (inactive)	> 100 µM (inactive)	> 100 µM (inactive)	> 100 µM (inactive)	> 100 µM (inactive)		
COC1=CC(=O)c2c(c(-c3csc(C)n3)cn2C)C1=O	17.9 µM (inactive)	27 µM (inactive)	18.5 µM (inactive)	35.9 µM (inactive)	22 µM (inactive)	20 µM (inactive)	1.72 µM (inactive)	20.7 µM (inactive)	17.1 µM (inactive)	18.3 µM (inactive)	4.85 µM (inactive)	8.04 µM (inactive)	29.3 µM (inactive)	23.4 µM (inactive)	29.4 µM (inactive)	5.58 µM (inactive)	9.14 µM (inactive)	4.81 µM (inactive)	25.4 µM (inactive)	22.1 µM (inactive)
Cc1ccc(-c2cc(-c3ccc(Cl)cc3)nc(/N=C3\C(=O)N(CN4CCCCC4)c4ccc(Cl)cc43)n2)cc1	24.5 µM (inactive)		12.5 µM (inactive)	24.3 µM (inactive)	22.1 µM (inactive)	77.8 µM (inactive)	19.8 µM (inactive)	10.5 µM (inactive)	18.2 µM (inactive)	18.3 µM (inactive)	37.5 µM (inactive)	11.2 µM (inactive)	18.1 µM (inactive)	23.1 µM (inactive)	36.2 µM (inactive)	15.6 µM (inactive)	35.5 µM (inactive)	23.3 µM (inactive)	19.9 µM (inactive)	25.9 µM (inactive)
CCCCc1c(O)nc(Nc2nc3ccccc3[nH]2)[nH]c1=O	> 100 µM (inactive)		57 µM (inactive)	> 100 µM (inactive)	> 100 µM (inactive)	> 100 µM (inactive)	> 100 µM (inactive)	> 100 µM (inactive)	> 100 µM (inactive)	> 100 µM (inactive)	> 100 µM (inactive)	> 100 µM (inactive)	> 100 µM (inactive)	> 100 µM (inactive)	> 100 µM (inactive)	> 100 µM (inactive)	> 100 µM (inactive)	> 100 µM (inactive)	> 100 µM (inactive)	> 100 µM (inactive)
COc1ccc(C(=O)C(Br)C(Br)C(=O)O)cc1 (stereo not given)	21.4 µM (inactive)		16.7 µM (inactive)	23.3 µM (inactive)	30.1 µM (inactive)	53.6 µM (inactive)	> 100 µM (inactive)	51.1 µM (inactive)	39 µM (inactive)	24.2 µM (inactive)	80.2 µM (inactive)	83.8 µM (inactive)	38.3 µM (inactive)	20.8 µM (inactive)	> 100 µM (inactive)	54.1 µM (inactive)	28.3 µM (inactive)	21 µM (inactive)	29 µM (inactive)	47.2 µM (inactive)
COc1ccc(/N=C2\C(=O)Nc3ccc(Br)cc32)cc1	16.5 µM (inactive)	9.82 µM (inactive)	9.38 µM (inactive)	16 µM (inactive)	18.7 µM (inactive)	17.2 µM (inactive)	11.2 µM (inactive)			18.2 µM (inactive)	32.3 µM (inactive)	33.4 µM (inactive)	14.4 µM (inactive)	14.2 µM (inactive)	13.9 µM (inactive)	17.5 µM (inactive)	21.7 µM (inactive)	10.1 µM (inactive)	8.67 µM (inactive)	17.2 µM (inactive)
O=[PH]1c2ccccc2Nc2ccccc21	> 100 µM (inactive)		74.3 µM (inactive)	63.7 µM (inactive)	> 100 µM (inactive)	22.4 µM (inactive)	> 100 µM (inactive)	> 100 µM (inactive)	49.9 µM (inactive)	> 100 µM (inactive)	98.6 µM (inactive)	> 100 µM (inactive)	> 100 µM (inactive)	> 100 µM (inactive)	45.9 µM (inactive)	> 100 µM (inactive)	52.6 µM (inactive)	> 100 µM (inactive)	21.6 µM (inactive)	> 100 µM (inactive)
CCN1CCC(O)(/C=C/c2ccc(Cl)c(Cl)c2)C(C(=O)/C=C/c2ccc(Cl)c(Cl)c2)C1 (stereo not given)	1.95 µM (inactive)	0.995 µM (active)	0.948 µM (active)	0.466 µM (active)	0.843 µM (active)	0.731 µM (active)	0.834 µM (active)	0.706 µM (active)	1.04 µM (active)	1.35 µM (inactive)	1.13 µM (inactive)	1.89 µM (inactive)	1.82 µM (inactive)	0.514 µM (active)	0.635 µM (active)	0.733 µM (active)	0.764 µM (active)	0.794 µM (active)	0.324 µM (active)	0.873 µM (active)
CCCCCCCCCCCCCC[S+](C)C	1.27 µM (inactive)	3.07 µM (inactive)	1.75 µM (inactive)	2.33 µM (inactive)	> 10 µM (inactive)	3.01 µM (inactive)	1.53 µM (inactive)	1.12 µM (inactive)	2.02 µM (inactive)	1.2 µM (inactive)	3.8 µM (inactive)	1.4 µM (inactive)	2.61 µM (inactive)	2.51 µM (inactive)	2.23 µM (inactive)	1.83 µM (inactive)	1.48 µM (inactive)	1.79 µM (inactive)	1.4 µM (inactive)	1.59 µM (inactive)
COc1ccc(/C(Cl)=C(\CNc2ccccn2)c2ccccc2)cc1OC	> 100 µM (inactive)	> 100 µM (inactive)	99.8 µM (inactive)	> 100 µM (inactive)	> 100 µM (inactive)	> 100 µM (inactive)	> 100 µM (inactive)	> 100 µM (inactive)	> 100 µM (inactive)	> 100 µM (inactive)	> 100 µM (inactive)	> 100 µM (inactive)	> 100 µM (inactive)	> 100 µM (inactive)	> 100 µM (inactive)			> 100 µM (inactive)	> 100 µM (inactive)	> 100 µM (inactive)
Cc1cc(C)n(C2=NS(=O)(=O)c3ccccc3N2C)n1	> 100 µM (inactive)	> 100 µM (inactive)	> 100 µM (inactive)	> 100 µM (inactive)	> 100 µM (inactive)	> 100 µM (inactive)	> 100 µM (inactive)	> 100 µM (inactive)	> 100 µM (inactive)	> 100 µM (inactive)	> 100 µM (inactive)	> 100 µM (inactive)	> 100 µM (inactive)	> 100 µM (inactive)	> 100 µM (inactive)	> 100 µM (inactive)	> 100 µM (inactive)	> 100 µM (inactive)	> 100 µM (inactive)	> 100 µM (inactive)
Cc1cc(NC(=O)NC(=O)c2ccccc2NC(=O)CN(C)C)ccc1Oc1ncc(Br)cn1	1.56 µM (inactive)	8.55 µM (inactive)	1.14 µM (inactive)	2.02 µM (inactive)	1.05 µM (active)	12.9 µM (inactive)	1.45 µM (inactive)	6.27 µM (inactive)	10.4 µM (inactive)	1.98 µM (inactive)	2.41 µM (inactive)	9.77 µM (inactive)	3.68 µM (inactive)	1.85 µM (inactive)	1.95 µM (inactive)	1.58 µM (inactive)	1.04 µM (active)	9.98 µM (inactive)	2 µM (inactive)	17.3 µM (inactive)
O=C1CCCCCCCCCCC1CN1CCCC1 (stereo not given)	22.1 µM (inactive)	35.1 µM (inactive)	39.3 µM (inactive)	39.3 µM (inactive)	40 µM (inactive)		17.6 µM (inactive)	46 µM (inactive)	17.9 µM (inactive)	15.1 µM (inactive)	29.9 µM (inactive)	> 100 µM (inactive)	43.1 µM (inactive)	33.4 µM (inactive)	47.9 µM (inactive)	20.1 µM (inactive)	67.5 µM (inactive)	19.4 µM (inactive)	53.8 µM (inactive)	41.1 µM (inactive)
Cc1ccccc1/N=N/c1cc(C)c(/N=N/c2c(O)ccc3ccccc23)cc1C		> 100 µM (inactive)	> 100 µM (inactive)	> 100 µM (inactive)	> 100 µM (inactive)	> 100 µM (inactive)	> 100 µM (inactive)	> 100 µM (inactive)	> 100 µM (inactive)	> 100 µM (inactive)	> 100 µM (inactive)	> 100 µM (inactive)	> 100 µM (inactive)	> 100 µM (inactive)	> 100 µM (inactive)	> 100 µM (inactive)	> 100 µM (inactive)	> 100 µM (inactive)	> 100 µM (inactive)	> 100 µM (inactive)
COC(=O)c1ccccc1/C=C1\Cc2ccc3c(c2C1=O)CCC3	> 100 µM (inactive)	> 100 µM (inactive)	> 100 µM (inactive)	> 100 µM (inactive)	> 100 µM (inactive)	> 100 µM (inactive)	> 100 µM (inactive)	> 100 µM (inactive)		> 100 µM (inactive)	> 100 µM (inactive)		> 100 µM (inactive)	> 100 µM (inactive)	> 100 µM (inactive)		> 100 µM (inactive)	> 100 µM (inactive)	> 100 µM (inactive)	> 100 µM (inactive)
